Experimental data reported in patent publication US6437185B1, “Quaternary ammonium compounds and process for preparing and using same” (Finetex, Inc., priority 1999, dated 2002).

Tests used:
[1] = test system: Epiocular samples (Ocular Tissue model); settings: literature grouping, Kay and Calandra 1962; cited from earlier work
EpiDerm (Skin model) = settings: groupings used to assign irritancy from ET-50; cited from earlier work
[2] = test system: Epiocular samples (Ocular Tissue model); assay: In-vitro Mat Tek ocular irritation protocol (Epiocular, Ocular Tissue model); type: cell-based; settings: for Ocular Results/Classification: tested at 3.0% active
Description: Both products were tested at 3.0% active for dermal and ocular irritation by in-vitro Mat Tek Protocols (Skin model and Ocular Tissue model).
Construction of a Dose Response Curve: The extractant solution within each well was pipetted up and down several times to insure that each is well mixed. 200 microliters of each of the mixed extraction solutions was then pipetted into separate wells of a 96 well microtiter plate. A Dynatech MR 4000 Automatic Microplate Reader was used to determine the optical density of each extract at 570 nm. With the absorbance of a negative control defined as 100%, the percent absorbencies of the articles were determined (% viability=100×(OD [article]/OD [negative control]). The calculated percentages directly correlate with the cell metabolism in the Epiocular samples.
Using a semi-log scale, the percent viability (liner “y” axis) was plotted versus the dosing time (log “x” axis). By interpolation, the time at which the viability has dropped to 50% was determined.

Row | Compound | Irritancy Classification (example substances of the Draize score / Epiocular ET-50 groups) [1] | Expected In vivo Irritancy (example substances of the EpiDerm ET-50 groups) (EpiDerm (Skin model)) | Mildness in toxicology studies (in words) ([2]; 3.0% active, dermal and ocular irritation, in-vitro Mat Tek Protocols) | Ocular Results/Classification ([2]; first table) | Ocular Results/Classification ([2]; second table with the same title)
1 | CCCCCCCCCCCCOS(=O)(=O)[O-].[Na+] [2% Sodium Dodecyl Sulfate, Sodium Dodecyl Sulfate] | Mild (<20.5-9.67) | Moderate (0.5-4) | – | – | –
2 | O=[N+]([O-])O [Conc. Nitric Acid, Nitric Acid] | – | Severe, probably corrosive (<0.5) | – | – | –
3 | N′,N″,N′″-Triethyl, N′,N′,N′″,N′″-Tetramethyl, N″-[(Trioxypropyl)-ω-hydroxycetyl], dipropylene triammonium triethosulfate [FINQUAT ® CT-P] | – | – | milder than FINQUAT® CT | Non-Irritancy (as in Peg 75 Lanolin) | Non-Irritancy (as in Peg 75 Lanolin)
